# Laboratory results taken from patent US20240368135A1 (VERTEX PHARMACEUTICALS INCORPORATED, priority 2021, published 2024).
# Biological target: human NaV 1.8 (Homo sapiens, UniProt Q9Y5Y9)
# Assay: E-VIPR assay detecting and measuring NaV inhibition properties
# Assay type: cell-based
# Conditions: HEK cells expressing truncated human NaV 1.8; in the presence of human serum (compound numbers followed by *); read-out: IC50 in the E-VIPR Assay, performed in the presence of human serum
# How it was run: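 Membrane potential was followed by coumarin/oxonol FRET during electrical field stimulation of matrigel-seeded HEK cells carrying truncated human NaV1.8 plus KIR2.1. Dosing used 11 points, 3-fold steps, top 300 nM final, 0.625% DMSO, with or without 25% human serum.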
# Chain of human NaV 1.8 (Q9Y5Y9 126-399 limits assumed): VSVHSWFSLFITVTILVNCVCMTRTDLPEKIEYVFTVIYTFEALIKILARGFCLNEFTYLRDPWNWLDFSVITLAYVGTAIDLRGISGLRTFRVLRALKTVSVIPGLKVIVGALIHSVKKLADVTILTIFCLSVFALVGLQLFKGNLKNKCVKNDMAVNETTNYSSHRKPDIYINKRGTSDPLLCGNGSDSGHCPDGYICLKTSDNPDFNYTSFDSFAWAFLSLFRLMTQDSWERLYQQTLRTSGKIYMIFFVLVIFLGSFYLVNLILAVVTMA
# Chain of human NaV 1.8 (Q9Y5Y9 660-890 limits assumed): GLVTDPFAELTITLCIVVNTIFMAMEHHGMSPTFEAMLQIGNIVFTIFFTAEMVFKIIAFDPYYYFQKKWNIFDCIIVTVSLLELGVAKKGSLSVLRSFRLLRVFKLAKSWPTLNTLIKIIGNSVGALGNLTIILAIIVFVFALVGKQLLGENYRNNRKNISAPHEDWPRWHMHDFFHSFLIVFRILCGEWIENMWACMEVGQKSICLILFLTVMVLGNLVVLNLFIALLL
# Chain of human NaV 1.8 (Q9Y5Y9 1148-1722 limits assumed): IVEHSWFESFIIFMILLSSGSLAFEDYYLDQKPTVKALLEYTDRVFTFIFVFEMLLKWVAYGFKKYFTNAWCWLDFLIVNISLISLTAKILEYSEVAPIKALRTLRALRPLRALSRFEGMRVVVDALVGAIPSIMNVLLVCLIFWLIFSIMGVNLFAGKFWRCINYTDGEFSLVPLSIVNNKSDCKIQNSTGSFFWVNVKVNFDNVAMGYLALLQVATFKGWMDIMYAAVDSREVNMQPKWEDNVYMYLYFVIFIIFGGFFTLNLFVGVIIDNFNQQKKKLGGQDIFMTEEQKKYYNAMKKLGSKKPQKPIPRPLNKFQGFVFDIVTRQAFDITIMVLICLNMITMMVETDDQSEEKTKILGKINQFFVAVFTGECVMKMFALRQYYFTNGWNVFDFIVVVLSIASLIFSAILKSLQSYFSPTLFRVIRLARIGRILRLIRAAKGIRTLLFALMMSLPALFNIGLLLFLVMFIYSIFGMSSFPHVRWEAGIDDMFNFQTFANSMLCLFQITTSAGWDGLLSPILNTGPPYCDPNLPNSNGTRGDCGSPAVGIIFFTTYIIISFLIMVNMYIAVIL
row,SMILES,IC50
1,"COc1c(C2C(C(=O)Nc3cc(CO)ncc3C)OC(C)(C(F)(F)F)C2C)ccc(F)c1F (stereo not shown) [Compound 243, 3-(3,4-difluoro-2-methoxy-phenyl)-N-[2-(hydroxymethyl)-5-methyl-4-pyridyl]-4,5-dimethyl-5-(trifluoromethyl)tetrahydrofuran-2-carboxamide]",10 to 100 nM

# Same assay, conditions: HEK cells expressing truncated human NaV 1.8; no human serum; read-out: IC50 in the E-VIPR Assay
row,SMILES,IC50
1,"CNS(=O)(=O)c1ccc(NC(=O)[C@@H]2O[C@@](C)(C(F)(F)F)[C@@H](C)[C@H]2c2ccc(F)c(F)c2OC)cn1 [Compound 236, (2R,3S,4S,5R)-3-(3,4-difluoro-2-methoxy-phenyl)-4,5-dimethyl-N-[6-(methylsulfamoyl)-3-pyridyl]-5-(trifluoromethyl)tetrahydrofuran-2-carboxamide]",10 to 100 nM
2,"COc1c([C@H]2[C@H](C(=O)Nc3cnc(CCO)nc3)O[C@@](C)(C(F)(F)F)[C@H]2C)ccc(F)c1F [Compound 237, (2R,3S,4S,5R)-3-(3,4-difluoro-2-methoxyphenyl)-N-(2-(2-hydroxyethyl)pyrimidin-5-yl)-4,5-dimethyl-5-(trifluoromethyl)tetrahydrofuran-2-carboxamide]",10 to 100 nM
3,"COC[C@@H](O)Cn1cc(NC(=O)[C@@H]2O[C@@](C)(C(F)(F)F)[C@@H](C)[C@H]2c2ccc(F)c(F)c2OC)c(C)n1 [Compound 245, (2R,3S,4S,5R)-3-(3,4-difluoro-2-methoxyphenyl)-N-(1-((S)-2-hydroxy-3-methoxypropyl)-3-methyl-1H-pyrazol-4-yl)-4,5-dimethyl-5-(trifluoromethyl)tetrahydrofuran-2-carboxamide]",10 to 100 nM
4,"COc1c([C@H]2[C@H](C(=O)Nc3cc(CO)ncn3)O[C@@](C)(C(F)(F)F)[C@H]2C)ccc(F)c1F [Compound 246, (2R,3S,4S,5R)-3-(3,4-difluoro-2-methoxyphenyl)-N-(6-(hydroxymethyl)pyrimidin-4-yl)-4,5-dimethyl-5-(trifluoromethyl)tetrahydrofuran-2-carboxamide]",< 10 nM
5,"COc1ncc(NC(=O)[C@@H]2O[C@@](C)(C(F)(F)F)[C@@H](C)[C@H]2c2ccc(F)c(F)c2OC)cc1CO [Compound 247, (2R,3S,4S,5R)-3-(3,4-difluoro-2-methoxyphenyl)-N-(5-(hydroxymethyl)-6-methoxypyridin-3-yl)-4,5-dimethyl-5-(trifluoromethyl)tetrahydrofuran-2-carboxamide]",100 to 1000 nM
6,"CNC(=O)c1cn2cc(NC(=O)[C@@H]3O[C@@](C)(C(F)(F)F)[C@@H](C)[C@H]3c3ccc(F)c(F)c3OC)ccc2n1 [Compound 258, 6-((2R,3S,4S,5R)-3-(3,4-difluoro-2-methoxyphenyl)-4,5-dimethyl-5-(trifluoromethyl)tetrahydrofuran-2-carboxamido)-N-methylimidazo[1,2-a]pyridine-2-carboxamide]",10 to 100 nM
7,"COc1c([C@H]2[C@H](C(=O)Nc3ccc4nc(C(=O)N5CCOCC5)cn4c3)O[C@@](C)(C(F)(F)F)[C@H]2C)ccc(F)c1F [Compound 259, (2R,3S,4S,5R)-3-(3,4-difluoro-2-methoxyphenyl)-4,5-dimethyl-N-(2-(morpholine-4-carbonyl)imidazo[1,2-a]pyridin-6-yl)-5-(trifluoromethyl)tetrahydrofuran-2-carboxamide]",10 to 100 nM
8,"COc1c([C@H]2[C@H](C(=O)Nc3ccc4nc(C(=O)NCCO)cn4c3)O[C@@](C)(C(F)(F)F)[C@H]2C)ccc(F)c1F [Compound 260, 6-((2R,3S,4S,5R)-3-(3,4-difluoro-2-methoxyphenyl)-4,5-dimethyl-5-(trifluoromethyl)tetrahydrofuran-2-carboxamido)-N-(2-hydroxyethyl)imidazo[1,2-a]pyridine-2-carboxamide]",10 to 100 nM
9,"COc1c([C@H]2[C@H](C(=O)Nc3ccc4nc(C(=O)N(C)C)cn4c3)O[C@@](C)(C(F)(F)F)[C@H]2C)ccc(F)c1F [Compound 261, 6-((2R,3S,4S,5R)-3-(3,4-difluoro-2-methoxyphenyl)-4,5-dimethyl-5-(trifluoromethyl)tetrahydrofuran-2-carboxamido)-N,N-dimethylimidazo[1,2-a]pyridine-2-carboxamide]",10 to 100 nM
10,"COc1c([C@H]2[C@H](C(=O)Nc3cc(CO)n(C)n3)O[C@@](C)(C(F)(F)F)[C@H]2C)ccc(F)c1F [Compound 263, (2R,3S,4S,5R)-3-(3,4-difluoro-2-methoxyphenyl)-N-(5-(hydroxymethyl)-1-methyl-1H-pyrazol-3-yl)-4,5-dimethyl-5-(trifluoromethyl)tetrahydrofuran-2-carboxamide]",100 to 1000 nM
11,"COc1c([C@H]2[C@H](C(=O)Nc3ccc4nc(CO)cn4c3)O[C@@](C)(C(F)(F)F)[C@H]2C)ccc(F)c1F [Compound 264, (2R,3S,4S,5R)-3-(3,4-difluoro-2-methoxyphenyl)-N-(2-(hydroxymethyl)imidazo[1,2-a]pyridin-6-yl)-4,5-dimethyl-5-(trifluoromethyl)tetrahydrofuran-2-carboxamide]",10 to 100 nM
12,"COc1c([C@H]2[C@H](C(=O)NC3CCOCC3)O[C@@](C)(C(F)(F)F)[C@H]2C)ccc(F)c1F [Compound 269, (2R,3S,4S,5R)-3-(3,4-difluoro-2-methoxyphenyl)-4,5-dimethyl-N-(tetrahydro-2H-pyran-4-yl)-5-(trifluoromethyl)tetrahydrofuran-2-carboxamide]",≥ 1000 nM
13,"COc1c([C@H]2[C@H](C(=O)NCC3CC3)O[C@@](C)(C(F)(F)F)[C@H]2C)ccc(F)c1F [Compound 270, (2R,3S,4S,5R)-N-(cyclopropylmethyl)-3-(3,4-difluoro-2-methoxyphenyl)-4,5-dimethyl-5-(trifluoromethyl)tetrahydrofuran-2-carboxamide]",100 to 1000 nM
14,"COc1c([C@H]2[C@H](C(=O)NC(C)C(N)=O)O[C@@](C)(C(F)(F)F)[C@H]2C)ccc(F)c1F (stereo partly drawn) [Compound 271, (2R,3S,4S,5R)-N-(1-amino-1-oxopropan-2-yl)-3-(3,4-difluoro-2-methoxyphenyl)-4,5-dimethyl-5-(trifluoromethyl)tetrahydrofuran-2-carboxamide]",≥ 1000 nM
15,"COc1c([C@H]2[C@H](C(=O)NCCc3ncc[nH]3)O[C@@](C)(C(F)(F)F)[C@H]2C)ccc(F)c1F [Compound 272, (2R,3S,4S,5R)-3-(3,4-difluoro-2-methoxy-phenyl)-N-[2-(1H-imidazol-2-yl)ethyl]-4,5-dimethyl-5-(trifluoromethyl)tetrahydrofuran-2-carboxamide]",≥ 1000 nM
16,"COc1c([C@H]2[C@H](C(=O)NC3CCN(C(C)=O)CC3)O[C@@](C)(C(F)(F)F)[C@H]2C)ccc(F)c1F [Compound 273, (2R,3S,4S,5R)-N-(1-acetylpiperidin-4-yl)-3-(3,4-difluoro-2-methoxyphenyl)-4,5-dimethyl-5-(trifluoromethyl)tetrahydrofuran-2-carboxamide]",≥ 1000 nM
17,"COc1c([C@H]2[C@H](C(=O)NC3CCCN(C(C)=O)C3)O[C@@](C)(C(F)(F)F)[C@H]2C)ccc(F)c1F (stereo partly drawn) [Compound 274, (2R,3S,4S,5R)-N-(1-acetylpiperidin-3-yl)-3-(3,4-difluoro-2-methoxyphenyl)-4,5-dimethyl-5-(trifluoromethyl)tetrahydrofuran-2-carboxamide]",≥ 1000 nM
18,"COc1c([C@H]2[C@H](C(=O)NC(C)c3ccn[nH]3)O[C@@](C)(C(F)(F)F)[C@H]2C)ccc(F)c1F (stereo partly drawn) [Compound 275, (2R,3S,4S,5R)-N-(1-(1H-pyrazol-5-yl)ethyl)-3-(3,4-difluoro-2-methoxyphenyl)-4,5-dimethyl-5-(trifluoromethyl)tetrahydrofuran-2-carboxamide]",≥ 1000 nM
19,"COCC1(CNC(=O)[C@@H]2O[C@@](C)(C(F)(F)F)[C@@H](C)[C@H]2c2ccc(F)c(F)c2OC)CCC1 [Compound 276, (2R,3S,4S,5R)-3-(3,4-difluoro-2-methoxyphenyl)-N-((1-(methoxymethyl)cyclobutyl)methyl)-4,5-dimethyl-5-(trifluoromethyl)tetrahydrofuran-2-carboxamide]",≥ 1000 nM
20,"COc1c([C@H]2[C@H](C(=O)NCC#N)O[C@@](C)(C(F)(F)F)[C@H]2C)ccc(F)c1F [Compound 277, (2R,3S,4S,5R)-N-(cyanomethyl)-3-(3,4-difluoro-2-methoxyphenyl)-4,5-dimethyl-5-(trifluoromethyl)tetrahydrofuran-2-carboxamide]",≥ 1000 nM
21,"COc1c([C@H]2[C@H](C(=O)NC3CN(C)C3)O[C@@](C)(C(F)(F)F)[C@H]2C)ccc(F)c1F [Compound 278, (2R,3S,4S,5R)-3-(3,4-difluoro-2-methoxyphenyl)-4,5-dimethyl-N-(1-methylazetidin-3-yl)-5-(trifluoromethyl)tetrahydrofuran-2-carboxamide]",≥ 1000 nM
22,"COc1c([C@H]2[C@H](C(=O)NCC3CCOC3)O[C@@](C)(C(F)(F)F)[C@H]2C)ccc(F)c1F (stereo partly drawn) [Compound 279, (2R,3S,4S,5R)-3-(3,4-difluoro-2-methoxyphenyl)-4,5-dimethyl-N-((tetrahydrofuran-3-yl)methyl)-5-(trifluoromethyl)tetrahydrofuran-2-carboxamide]",≥ 1000 nM
23,"COc1c([C@H]2[C@H](C(=O)NC3CC(F)(F)C3)O[C@@](C)(C(F)(F)F)[C@H]2C)ccc(F)c1F [Compound 280, (2R,3S,4S,5R)-3-(3,4-difluoro-2-methoxyphenyl)-N-(3,3-difluorocyclobutyl)-4,5-dimethyl-5-(trifluoromethyl)tetrahydrofuran-2-carboxamide]",100 to 1000 nM
24,"COc1c([C@H]2[C@H](C(=O)NCC3CNC(=O)C3)O[C@@](C)(C(F)(F)F)[C@H]2C)ccc(F)c1F (stereo partly drawn) [Compound 281, (2R,3S,4S,5R)-3-(3,4-difluoro-2-methoxyphenyl)-4,5-dimethyl-N-((5-oxopyrrolidin-3-yl)methyl)-5-(trifluoromethyl)tetrahydrofuran-2-carboxamide]",100 to 1000 nM
